According to ChEMBL document CHEMBL3525978, “Preferred binding orientations of phenacetin in CYP1A1 and CYP1A2 are associated with isoform-selective metabolism” (Drug Metab Dispos, 2012):

What was measured:
Type in all cases: ADME
[1] = Ratio of Kcat for CYP1A2 (unknown origin) expressed in Escherichia coli DH5alpha to Kcat for CYP1A1 (unknown origin) expressed in Escherichia coli DH5alpha; settings: human
CYP1A1, CYP1A2 = assay: Ratio of Km for CYP1A1 (unknown origin) expressed in Escherichia coli DH5alpha to Km for CYP1A2 (unknown origin) expressed in Escherichia coli DH5alpha; settings: human
Cytochrome P450 1A1 = biological target: T1, Cytochrome P450 1A1 (Homo sapiens, UniProt P04798); assay: Ratio of Kcat to Km for CYP1A1 (unknown origin) expressed in Escherichia coli DH5alpha preincubated for 5 mins before NADPH addition measured after 30 mins by HPLC analysis; settings: 0.5 h
T1 sequence (P04798 whole entry): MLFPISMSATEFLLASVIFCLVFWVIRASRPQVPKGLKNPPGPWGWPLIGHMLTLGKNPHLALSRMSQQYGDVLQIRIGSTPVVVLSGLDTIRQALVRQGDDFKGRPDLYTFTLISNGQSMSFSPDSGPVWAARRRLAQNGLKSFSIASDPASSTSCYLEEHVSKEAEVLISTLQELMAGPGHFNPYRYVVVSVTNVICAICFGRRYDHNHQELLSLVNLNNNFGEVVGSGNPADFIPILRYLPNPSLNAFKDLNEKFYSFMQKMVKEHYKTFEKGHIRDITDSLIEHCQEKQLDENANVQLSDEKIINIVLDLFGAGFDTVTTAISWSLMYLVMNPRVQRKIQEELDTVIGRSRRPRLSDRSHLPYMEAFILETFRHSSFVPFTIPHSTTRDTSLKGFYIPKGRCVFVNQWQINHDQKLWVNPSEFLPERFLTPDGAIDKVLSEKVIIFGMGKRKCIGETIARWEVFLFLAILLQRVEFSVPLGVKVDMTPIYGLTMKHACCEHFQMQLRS

Cytochrome P450 1A2 = biological target: T2, Cytochrome P450 1A2 (Homo sapiens, UniProt P05177); assay: Ratio of Kcat to Km for CYP1A2 (unknown origin) expressed in Escherichia coli DH5alpha preincubated for 5 mins before NADPH addition measured after 30 mins by HPLC analysis; settings: 0.5 h
T2 sequence (P05177 whole entry): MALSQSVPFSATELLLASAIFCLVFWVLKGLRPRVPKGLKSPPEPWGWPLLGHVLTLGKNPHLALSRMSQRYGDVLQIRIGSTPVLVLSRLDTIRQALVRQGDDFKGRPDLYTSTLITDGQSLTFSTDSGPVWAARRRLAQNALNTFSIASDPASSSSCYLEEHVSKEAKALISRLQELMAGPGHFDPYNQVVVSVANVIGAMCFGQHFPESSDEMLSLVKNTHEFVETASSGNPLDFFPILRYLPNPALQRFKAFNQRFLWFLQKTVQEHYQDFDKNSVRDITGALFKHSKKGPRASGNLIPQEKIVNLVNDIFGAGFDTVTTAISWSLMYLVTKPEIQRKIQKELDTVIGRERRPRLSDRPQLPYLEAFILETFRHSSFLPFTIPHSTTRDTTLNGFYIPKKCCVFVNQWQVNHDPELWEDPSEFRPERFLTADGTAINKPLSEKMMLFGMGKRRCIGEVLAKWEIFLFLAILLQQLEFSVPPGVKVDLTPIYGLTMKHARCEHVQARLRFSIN

| Ratio [1] | Kcat/Km (Cytochrome P450 1A1) | Kcat/Km (Cytochrome P450 1A2) | Structure (SMILES) | selectivity ratio (CYP1A1, CYP1A2) |
| --- | --- | --- | --- | --- |
| 2.5 | – | – | CCOc1ccc(NC(C)=O)cc1 [PHENACETIN] | 8 |
| – | 0.001 | 0.018 | CC(=O)Nc1ccc(O)cc1 [ACETAMINOPHEN] | – |
